Test results reported in patent US20150025131A1 (priority 2013, published 2015).
Entries after “also recorded” stand apart in the source; their conditions may differ.

How the values were obtained:
[1] = tested on: ROS production from PMA activated RAW. 267 cells (murine macrophages); assay: Lucigenin enhanced (myeloperoxidase independent) oxidative burst; type: cell-based; conditions: lucigenin enhanced, PMA activated RAW. 267 cells
Procedure: Intracellular effect was determined using human peripheral whole blood phagocytes and isolated neutrophils and from mice peritoneum macrophages, where luminol-enhanced chemillumenescence assay was applied. The effect on myeloperoxidase independent ROS production was determined using lucigenin on murine macrophages RAW.267 cells. […] Table 2. […] 267 cells (murine macrophages). DPI is used as standard drug. Reading presents mean±SD of three determinations.

[2] = tested on: ROS production from mice peritoneal macrophages; assay: Luminol enhanced chemiluminescence oxidative burst, mice peritoneal macrophages; type: cell-based; conditions: Mus musculus, Peritoneal macrophage, serum opsonized zymosan, read-out: Myeloperoxidase dependent Oxidative Burst (IC50 μg/mL) Macrophages
Procedure: (§1) Intracellular effect was determined using human peripheral whole blood phagocytes and isolated neutrophils and from mice peritoneum macrophages, where luminol-enhanced chemillumenescence assay was applied. The effect on myeloperoxidase independent ROS production was determined using lucigenin on murine macrophages RAW.267 cells.
(§2) Table 2. […] 267 cells (murine macrophages). DPI is used as standard drug. Reading presents mean±SD of three determinations.
NMRI mice of 25 to 30 gm weight were injected aseptically with 1 mL of heat inactivated fetal bovine serum (FBS) in the peritoneum cavity, using sterile 1 mL syringe and mice were kept for further 72 h. […] Cells were counted and concentration was adjusted to 1×10^6/mL for chemiluminescence assay.
(§3) Luminol enhanced chemiluminescence technique was applied to study the effect of compound on ROS from phagocytes, Using whole blood, neutrophil and macrophages Briefly, 25 μL diluted whole blood (1:50 dilution in sterile HBSS^++) or 25 μL of PMNs (1×10^6), or 25 μL of isolated macrophages (1×10^6) were incubated with 25 μL of compound in triplicates and using three different concentrations (1, 10 and 100 μg/mL) using white 96 wells plates. […] Results were monitored as relative light unit (RLU) reading, with peak and total integral values set with repeated scans at 60 seconds intervals, and 1 second points measuring time.

[3] = tested on: ROS production from human neutrophils; assay: Luminol enhanced chemiluminescence oxidative burst, isolated neutrophils; type: cell-based; conditions: Neutrophil, serum opsonized zymosan, read-out: Myeloperoxidase dependent Oxidative Burst (IC50 μg/mL) Neutrophils
Procedure: as §1, §2
Heparinized blood was obtained by vein puncture aseptically, from healthy volunteers (25-38 years age). The buffy coat containing polymorhonuclear neutrophils (PMNs) was collected by dextran sedimentation, and cells were isolated after the LSM density gradient centrifugation. […]
as §3

[4] = tested on: ROS production from human peripheral whole blood phagocytes; assay: Luminol enhanced chemiluminescence oxidative burst, whole blood; type: cell-based; conditions: luminol enhanced, serum opsonized zymosan, read-out: Myeloperoxidase dependent Oxidative Burst (IC50 μg/mL) Whole blood
Procedure: as §1, §2
Luminol enhanced chemiluminescence technique was applied to study the effect of compound on ROS from phagocytes, Using whole blood, neutrophil and macrophages Briefly, 25 μL diluted whole blood (1:50 dilution in sterile HBSS^++) or 25 μL of PMNs (1×10^6), or 25 μL of isolated macrophages (1×10^6) were incubated with 25 μL of compound in triplicates and using three different concentrations (1, 10 and 100 μg/mL) using white 96 wells plates. Wells received HBSS^++ and cells only without compound served as positive control. 25 μL of serum opsonized zymosan-A (SOZ), followed by 25 μL luminol (7×10^−5 M), was added to each well to maintain a volume of 100 μL/well. Plates were then incubated at 37° C. for 30 minutes in the thermostated chamber of the luminometer. Results were monitored as relative light unit (RLU) reading, with peak and total integral values set with repeated scans at 60 seconds intervals, and 1 second points measuring time.

serum IL-1β = assay: Adjuvant induced arthritis model, serum IL-1β; type: in vivo, Sprague Dawley rats; conditions: AIA rats, daily intraperitoneal; Patuletin 25 mg/kg, indomethacin 5 mg/kg
Procedure: (§4) All studies were carried out using Female Sprague Dawley (SD) rats weighing 150-250 gms. Animals were kept at 21±2° C. and on a 12-h light/dark cycle, received standardized pelleted diet and tap water. Experiments were performed under the ethical guidelines of the International Association for the study of pain in conscious animals. Each group contains 12 animals with randomly distributed weights into each treatment group.
(§5) Arthritis was induced by injecting freshly prepared 100 μL of 1 mg suspension of lyophilized Mycobacterium tuberculosis H37Ra (MT H37Ra; DIFCO Laboratories, Detroit, Mich., USA), subcutaneously at the rat tail base using sterile hypodermic needle. Inoculation was carried out under anesthesia with a combination of 20 mg/kg ketamine and 5 mg/kg xylazine, injected intraperitoneally. Compound and the reference drug were administered daily, intraperitoneally using sterile syringes. The positive control received vehicle (5% DMSO+PBS) or saline only; treatment groups received test compounds (25 mg/kg), whereas reference group received indomethacin (5 mg/kg). The doses of the test compounds were selected after preliminary dose finding studies. […]
(§6) The quantitative measurement of TNF-α and IL-1β was done in serum of all groups of animals including arthritic and non-arthritic using commercial ELISA assay kits (Abcam, USA) according to the manufacturer's instructions. […]

rheumatoid factor = assay: Adjuvant induced arthritis model, serum RA factor; type: in vivo, Sprague Dawley rats; conditions: AIA rats, daily intraperitoneal; Patuletin 25 mg/kg, indomethacin 5 mg/kg
Procedure: as §4
Arthritis was induced by injecting freshly prepared 100 μL of 1 mg suspension of lyophilized Mycobacterium tuberculosis H37Ra (MT H37Ra; DIFCO Laboratories, Detroit, Mich., USA), subcutaneously at the rat tail base using sterile hypodermic needle. Inoculation was carried out under anesthesia with a combination of 20 mg/kg ketamine and 5 mg/kg xylazine, injected intraperitoneally. Compound and the reference drug were administered daily, intraperitoneally using sterile syringes. […]
Measurement of RA factor in rat serum was determined using Tina-quant RFII Kit (Roche Diagnostics, USA) and automated analyzers according to manufacturer's instructions. The test principle involves the reaction of latex bound heat inactivated IgG (antigen) with RF antibodies in the sample to form Ag/Ab complex resulting in agglutination which can be measured turbidimetrically.

[5] = tested on: knee joints of arthritic rats; assay: Adjuvant induced arthritis model, histopathology of knee joints (H & E); type: in vivo, Sprague Dawley rats; conditions: H & E staining
Procedure: as §4
Arthritis was induced by injecting freshly prepared 100 μL of 1 mg suspension of lyophilized Mycobacterium tuberculosis H37Ra (MT H37Ra; DIFCO Laboratories, Detroit, Mich., USA), subcutaneously at the rat tail base using sterile hypodermic needle. Inoculation was carried out under anesthesia with a combination of 20 mg/kg ketamine and 5 mg/kg xylazine, injected intraperitoneally. Compound and the reference drug were administered daily, intraperitoneally using sterile syringes. The positive control received vehicle (5% DMSO+PBS) or saline only; treatment groups received test compounds (25 mg/kg), whereas reference group received indomethacin (5 mg/kg). The doses of the test compounds were selected after preliminary dose finding studies. The treatment was started on the same day after vaccination.
The animals were sacrificed at the end of the experiment and samples were taken from the knee joints. Sample fixation were done using 10% formalin following decalcification. The samples were then processed, embedded, cut, mounted and stained with hematoxylin and eosin (H & E) dye for microscopic evaluation.

serum peroxide = assay: Adjuvant induced arthritis model, serum peroxide; type: in vivo, Sprague Dawley rats; conditions: AIA rats, daily intraperitoneal; Patuletin 25 mg/kg, indomethacin 5 mg/kg
Procedure: as §4
(§7) Arthritis was induced by injecting freshly prepared 100 μL of 1 mg suspension of lyophilized Mycobacterium tuberculosis H37Ra (MT H37Ra; DIFCO Laboratories, Detroit, Mich., USA), subcutaneously at the rat tail base using sterile hypodermic needle. […]
(§8) Peroxide (PO) and nitric oxide (NO), in serum were determined in the serum samples of both the normal and arthritic groups, using quantitative colorimetric assay kits, i.e., the Quantichrom ™ Nitric Oxide Assay Kit, and the Quantichrome™ Peroxide assay kit Diox-250 (BioAssay Systems, Hayward, Calif., USA). […] The samples were analyzed in duplicates using 96-well plate and the plate was read at 540 nm. The Quantichrome™ Peroxide assay kit Diox −250 system is an improved method which utilizes the oxidation of Fe^++ by peroxide present in the analyzed sample resulting in formation of purple complex that gives the accurate measure of peroxide level in the sample when read at 540-610 nm.

serum nitric oxide = assay: Adjuvant induced arthritis model, serum nitric oxide; type: in vivo, Sprague Dawley rats; conditions: AIA rats, daily intraperitoneal; Patuletin 25 mg/kg, indomethacin 5 mg/kg
Procedure: as §4, §7, §8

serum TNF-α = assay: Adjuvant induced arthritis model, serum TNF-α; type: in vivo, Sprague Dawley rats; conditions: AIA rats, daily intraperitoneal; Patuletin 25 mg/kg, indomethacin 5 mg/kg
Procedure: as §4, §5, §6

[6] = tested on: PHA activated T cells isolated from human peripheral blood; assay: Thymidine incorporation T cell proliferation assay (PHA activated); type: cell-based; conditions: 72 h
Procedure: Heparinized blood was obtained by vein puncture aseptically from healthy volunteers (25-38 years age). Blood (10 mL) was mixed with incomplete RPMI, layered on 5 mL of Lymphocyte separation medium and centrifuged at 400 g for 20 min at room temperature. Buffy layer was collected and mixed with incomplete RPMI and centrifuged at 4° C. for 10 min at 300 g. Cells were obtained after the RBCs (if any) lysis using hypotonic solution, and washed at 4° C. for 10 min at 300 g. The cells were then suspended in complete RPMI containing 5% FBS and their concentration was adjusted to 2×10^6 cells/mL for T-cell proliferation assay.
Cell proliferation assay was conducted through standard thymidine incorporation technique. Briefly, isolated T-cells from peripheral blood of healthy individuals were plated at a concentration of 2×10^6 cells/mL in a round bottom 96-well tissue culture plates. Cells were stimulated with 7.5 μg/mL of PHA. […] The plate was then incubated for 72 hours at 37° C. in 5% CO2 incubator. After 72 hours, cultures were pulsed with 0.5 μCi/well tritiated thymidine (Amersham Pharmacia Biotech), and further incubated for 18 h. Cells were harvested onto a glass fiber filters using cell harvester (Innotech, Dottikon, Switzerland). The level of the thymidine incorporated into the cells was measured by a liquid scintillation counter (LS 6500, Beckman Coulter, Fullerton, Calif., USA). Results were expressed as mean count per minute (CPM). The inhibitory activity of compounds on T-lymphocyte proliferation was calculated using the following formula: […]

TNF-α production = TNF-α production from PMA differentiated, LPS activated THP-1 cells (ELISA); type: cell-based, human; conditions: 4 h
Procedure: The symbol * and δ represents the P≦0.03 and P≦0.006, respectively.
FIG. 2 depicts the effect of pentoxyfillin (PTX) on TNF-α production (pg/mL) Human monocytic leukemia THP-1 cells were differentiated and activated with 20 ng/mL of PMA and 50 ng/mL of LPS, respectively and incubated with different concentrations of PTX for 4h, the supernatant was analyzed for the level of TNF-α by ELISA. The symbol * represents P≦of 0.03.
THP-1 (human monocytic leukemia) cells were maintained in RPMI-1640 supplemented with 10% FBS, 2 mmol/L glutamine, 5.5 mmol/L glucose, 50 μmol/L mercaptoethanol, 1 mmol/L sodium pyruvate, and 10 mmol/L HEPES and incubated at 37° C. in 5% CO2. Cells were grown in […] culture flask until they attained 70% confluency. Cells were then plated in 24-well tissue culture plates at a concentration of 2.5×10^5 cells/mL. Cells were differentiated into macrophages using PMA at a final concentration of 20 ng/mL and further incubated at 37° C. in 5% CO2 environment for 24 h. […] After addition of the compound cells were then incubated for 4 h for TNF-α production and 18 h for IL-1β production at 37° C. in 5% CO2. The supernatants were harvested and analyzed for the level of TNF-α and IL-1β, by human TNF-α and IL-1β Duo set ELISA kits, and according to the manufacturer's instructions.

## [Cl-].c1ccc2c(c1)[I+]c1ccccc1-2 [DPI, reference compound]
[1]
  Myeloperoxidase independent Oxidative Burst (IC50 μg/mL) on macrophages: 1.6 ± 0.1 µg/mL

## CC(C)Cc1ccc(C(C)C(=O)O)cc1 (centres unmarked) [Ibuprofen, reference compound]
[2]
  IC50: 16.9 ± 2.5 µg/mL
[3]
  IC50: 2.5 ± 0.6 µg/mL
[4]
  IC50: 11.2 ± 1.9 µg/mL

## COc1ccc2c(c1)c(CC(=O)O)c(C)n2C(=O)c1ccc(Cl)cc1 [Indomethacin, reference compound]
Serum IL-1β
  level of IL-1β in serum versus arthritic control group: significant decrease; also recorded: marked decrease
Rheumatoid factor
  level of RA factor (rheumatoid factor) in serum versus arthritic control group: marked decrease
[5]
  histopathology of knee joints (in words) versus arthritic control rats: less infiltration of lymphocytes and minimal bone destruction
[5]; normal control score 0, arthritic control score 4
  histopathology score of knee joints: 2
Serum peroxide
  level of peroxide in serum versus arthritic control group: decrease; also recorded: non-significant reduction
Serum nitric oxide
  level of nitric oxide in serum versus arthritic control group: marked reduction; also recorded: significant decrease
Serum TNF-α
  level of TNF-α in serum versus arthritic control group: marked decrease

## C[C@]12C=CC(=O)C=C1CC[C@@H]1[C@@H]2[C@@H](O)C[C@@]2(C)[C@H]1CC[C@]2(O)C(=O)CO [Prednisolone]
[6]
  Human T cell proliferation (IC50 μg/mL): <0.62 µg/mL
[6]; Homo sapiens, T-cell, read-out: Human T cell proliferation (IC50 μg/mL)
  IC50: < 0.62 µg/mL

## CC(=O)CCCCn1c(=O)c2c(ncn2C)n(C)c1=O [pentoxyfillin, reference compound]
TNF-α production
  inhibition of TNF-α production (IC50): 94.8 µg/mL
